Data: patent US20220144826A1, “Heteroaromatic and Heterobicyclic Aromatic Derivatives for the Treatment of Ferroptosis-Related Disorders” (COLLABORATIVE MEDICINAL DEVELOPMENT, LLC, priority 2019, published 2022)

System: N27 rat dopaminergic neural cells
Assay: MTT assay in N27 rat dopaminergic neural cells: inhibition of RSL3-induced cell death (ferroptosis)
Format: cell-based
Conditions: ferroptosis induced by 0.5 μM RSL3, 24 hours, viability by MTT
Protocol: MTT Assay in N27 Rat Dopaminergic Neural Cells
N27 rat dopaminergic neural cells (Millipore, SCC048) were cultured in RPMI-1640 media (Wisent, 350-000) supplemented with 1×GlutaMAX (Gibco, 35050-061), 10% FBS (embryonic stem cell qualified; Wisent, 920-040), and 1× Penicillin-Streptomycin (Wisent, 450-201). Cells were grown in humidified tissue culture incubator at 37° C. with 5% CO2, for up to 10 passages. To evaluate the ability of test compounds to inhibit RSL3-induced cell death, N27 cells were seeded in clear 96-well tissue culture plates (Sarstedt, 83.3924) at a density of 15,000 cells/well. On the next day, the medium was changed to fresh complete RPMI-1640. Eight-point dilution series of test compounds were added to the cells. Then, ferroptosis was induced by addition of 0.5 μM RSL3 (vehicle-treated cells served as control). Ferrostatin-1 (Fer-1) was included in each assay as control inhibitor of ferroptosis. Plates were incubated for 24 hours at 37° C. in a tissue culture incubator, then cell viability was determined by MTT assay. Briefly, Thiazolyl Blue Tetrazolium Bromide [3-(4,5-dimethylthiazol-2-yl)-2,5-diphenyltetrazolium bromide or “MTT” ] (Sigma) stock solution (5 mg/mL in PBS, sterilized by filtration) was diluted 1:1 with complete growth medium, and added on the cells to a final concentration of 0.5 mg/mL. Cells were incubated with MTT for 4 hours at 37° C., protected from light, in a humidified, 5% CO2 atmosphere. Medium was then completely removed from the wells by gentle aspiration and converted MTT formazan crystals were dissolved in 150 μL of DMSO. Absorbance of converted dye was measured at 595 nm with background subtraction at 690 nm using the BioTek Cytation5 Microplate Reader. Blank reading (absorbance from wells containing media and vehicle only, no cells) was removed from all sample wells. Viability was calculated as a percentage of control cells (vehicle-treated cells were set as 100% viability). Dose-response curves were drawn and IC50 values were calculated using GraphPad Prism software, version 7.

Row | SMILES | IC50 (Rattus norvegicus, N27, 24 h) [nM] | IC50 [nM]
1 | CCCCC(O)c1nc2c(c(NC(C)(C)C)n1)NCCC2 (stereo not drawn) [Compound A-00, 1-[4-(tert-butylamino)-5,6,7,8-tetrahydropyrido[3,2-d]pyrimidin-2-yl]pentan-1-ol] | 139 | –
2 | CCCCC(=O)c1nc2c(c(NC(C)(C)C)n1)NCCC2 [Compound A-06, 1-[4-(tert-butylamino)-5,6,7,8-tetrahydropyrido[3,2-d]pyrimidin-2-yl]pentan-1-one] | 76 | –
3 | OC(c1ccccc1)c1nc2c(c(NC3CCCC3)n1)NCCC2 (stereo not drawn) [Compound A-10, [4-(cyclopentylamino)-5,6,7,8-tetrahydropyrido[3,2-d]pyrimidin-2-yl]-phenyl-methanol] | 71 | –
4 | OC(c1ccc(F)cc1)c1nc2c(c(NC3CCCC3)n1)NCCC2 (stereo not drawn) [Compound A-11, [4-(cyclopentylamino)-5,6,7,8-tetrahydropyrido[3,2-d]pyrimidin-2-yl]-(4-fluorophenyl)methanol] | 36 | –
5 | CC#Cc1nc2c(c(NC3CCCC3)n1)NCCC2 [Compound A-12, N-cyclopentyl-2-prop-1-ynyl-5,6,7,8-tetrahydropyrido[3,2-d]pyrimidin-4-amine] | 109 | –
6 | O=C(c1ccccc1)c1nc2c(c(NC3CCCC3)n1)NCCC2 [Compound A-16, [4-(cyclopentylamino)-5,6,7,8-tetrahydropyrido[3,2-d]pyrimidin-2-yl]-phenyl-methanone] | 285 | –
7 | O=C(c1ccc(F)cc1)c1nc2c(c(NC3CCCC3)n1)NCCC2 [Compound A-17, [4-(cyclopentylamino)-5,6,7,8-tetrahydropyrido[3,2-d]pyrimidin-2-yl]-(4-fluorophenyl)methanone] | 123 | –
8 | CCCCC(=O)c1nc2c(c(N3CCCC3)n1)NCCC2 [Compound A-18, 1-(4-pyrrolidin-1-yl-5,6,7,8-tetrahydropyrido[3,2-d]pyrimidin-2-yl)pentan-1-one] | 217 | –
9 | CCCC#Cc1nc2c(c(NC3CCCC3)n1)NCCC2 [Compound A-27, N-cyclopentyl-2-pent-1-ynyl-5,6,7,8-tetrahydropyrido[3,2-d]pyrimidin-4-amine] | 34 | –
10 | c1ccc(-c2cn(-c3nc4c(c(NC5CCCC5)n3)NCCC4)nn2)cc1 [Compound A-31, N-cyclopentyl-2-(4-phenyltriazol-1-yl)-5,6,7,8-tetrahydropyrido[3,2-d]pyrimidin-4-amine] | 21 | –
11 | Cc1ccc(-c2nc3c(c(NC4CCCC4)n2)NCCC3)cc1 [Compound A-32, N-cyclopentyl-2-(p-tolyl)-5,6,7,8-tetrahydropyrido[3,2-d]pyrimidin-4-amine] | 6 | –
12 | c1cc(-c2nc3c(c(NC4CCCC4)n2)NCCC3)ccn1 [Compound A-34, N-cyclopentyl-2-(4-pyridyl)-5,6,7,8-tetrahydropyrido[3,2-d]pyrimidin-4-amine] | 57 | –
13 | CC(C)(C)C(=O)c1nc2c(c(NC3CCCC3)n1)NCCC2 [Compound A-35, 1-[4-(cyclopentylamino)-5,6,7,8-tetrahydropyrido[3,2-d]pyrimidin-2-yl]-2,2-dimethyl-propan-1-one] | 248 | –
14 | CCCCCc1nc2c(c(NC3CCCC3)n1)NCCC2 [Compound A-63, N-cyclopentyl-2-pentyl-5,6,7,8-tetrahydropyrido[3,2-d]pyrimidin-4-amine] | – | 313
15 | Cc1ccc(-c2ccc(NC(C)(C)C)c(NC3CCCC3)n2)cc1 [Compound A-98, N^3-tert-butyl-N^2-cyclopentyl-6-(p-tolyl)pyridine-2,3-diamine] | 7 | –
16 | CCCCC(=O)c1cc2c(c(-n3ccnc3)c1)NCCC2 [Compound B-006, 1-(8-imidazol-1-yl-1,2,3,4-tetrahydroquinolin-6-yl)pentan-1-one] | > 3000 | –
17 | CCCCC(=O)c1cc2c(c(NC3CCCC3)c1)OCCC2 [Compound B-035, 1-[8-(cyclopentylamino)-3,4-dihydro-2H-1-benzopyran-6-yl]pentan-1-one] | > 3000 | –
18 | CCCCC(=O)c1cc(N)c2c(c1)CCCN2 [Compound B-059, 1-(8-amino-1,2,3,4-tetrahydroquinolin-6-yl)pentan-1-one] | 149 | –

Row | SMILES | IC50 (Rattus norvegicus, N27, 24 h) [nM] | IC50 [nM]
19 | CCCCC(=O)c1cc(N)c2c(c1)CCCN2S(=O)(=O)CC(C)C [Compound B-060] | 4020 | –
20 | CON(C)C(=O)c1ccc2c(c1)C=CC(C)(C)N2 [Compound B-065] | > 3000 | –
21 | CCCCC(=O)c1cc2c3c(c1)nc(C(F)(F)F)n3CCC2 [Compound B-099, 1-[2-(trifluoromethyl)-1,3-diazatricyclo[6.3.1.04,12]dodeca-2,4 (12),5,7-tetraen-6-yl]pentan-1-one] | > 3000 | –
22 | CCCCC(=O)c1ccc2c(c1)C=CC(C)(C)N2 [Compound B-100, 1-(2,2-dimethyl-1,2-dihydroquinolin-6-yl)pentan-1-one] | 7440 | –
23 | CCOC(=O)c1cc2c(c(C(=O)C(F)(F)F)c1)NC(C)(C)C=C2 [Compound B-101, Ethyl 2,2-dimethyl-8-(2,2,2-trifluoroacetyl)-1,2-dihydroquinoline-6-carboxylate] | > 3000 | –
24 | CCCCC(=O)c1cc(F)c2c(c1)CCCN2 [Compound B-132] | > 3000 | –
25 | CCCCC(=O)c1cc(N)c2c(c1)CCCN2Cc1ccccc1 [Compound B-133] | 2900 | –
26 | CCOC(=O)c1cc2c(c(NC3CCCC3)c1)NC(=O)CC2 [Compound B-148] | 1670 | –
27 | CCCCC(=O)c1cc2c(c(N(S(=O)(=O)CC(C)C)S(=O)(=O)CC(C)C)c1)NCCC2 [Compound B-248, N-isobutylsulfonyl-2-methyl-N-(6-pentanoyl-1,2,3,4-tetrahydroquinolin-8-yl)propane-1-sulfonamide] | > 3000 | –
28 | CCCCC(=O)c1cc2c(c(Nc3ccccn3)c1)NCCC2 [Compound B-249, 1-{8-[(pyridin-2-yl)amino]-1,2,3,4-tetrahydroquinolin-6-yl}pentan-1-one] | 343 | –
29 | CCCCC(O)c1cc2c(c(Nc3ccccn3)c1)NCCC2 (stereo not drawn) [Compound B-250, 1-[8-(2-pyridylamino)-1,2,3,4-tetrahydroquinolin-6-yl]pentan-1-ol] | 139 | –
30 | CCCCC(=O)c1cc2c(c(NS(=O)(=O)CC(C)C)c1)NCCC2 [Compound B-251, 2-methyl-N-(6-pentanoyl-1,2,3,4-tetrahydroquinolin-8-yl)propane-1-sulfonamide] | 9300 | –
31 | CCOC(=O)c1cc(N)c2c(c1)CCC(C)(C)N2 [Compound B-256] | 3820 | –
32 | CCOC(=O)c1cc2c(c(NC3CCCC3)c1)NC(C)(C)CC2 [Compound B-273, Ethyl 8-cyclopentylamino-2,2-dimethyl-3,4-dihydro-1H-quinoline-6-carboxylate] | 1040 | –
33 | CCCCCc1cc2c(c(Nc3ccccn3)c1)NCCC2 [Compound B-308] | 18 | –
34 | CCCCOc1nc2c(c(NC3CCCC3)n1)NCCC2 [Compound B-323, 2-Butoxy-N-cyclopentyl-5,6,7,8-tetrahydropyrido[3,2-d]pyrimidin-4-amine] | 43 | –
35 | CCCCCc1nc2c(c(NC3CCCC3)n1)NCCC2 [Compound B-349, N-Cyclopentyl-2-pentyl-5,6,7,8-tetrahydropyrido[3,2-d]pyrimidin-4-amine] | 170 | –
36 | CCC/C=C/c1nc2c(c(NC3CCCC3)n1)NCCC2 [Compound B-388, N-cyclopentyl-2-[(E)-pent-1-enyl]-5,6,7,8-tetrahydropyrido [3,2-d]pyrimidin-4-amine] | 40 | –
